The record followed here is US20080171710A1, “The Redox/Fyn/c-Cbl Pathway” (priority 2007, published 2008).

One test concerns c-Cbl. Type of test: cell-based, rat. An outline of the steps:
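Pre-cleared cell lysates (250 μg total protein) immunoprecipitated with anti-c-Cbl or anti-PDGFRα antibody (2 h, 4° C), then protein A/G agarose overnight at 4° C. Precipitates run on 8% SDS-PAGE and Western blotted with anti-p-Tyr (c-Cbl phosphorylation) or anti-ubiquitin (PDGFR ubiquitylation).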

Test [1] has as its system NF-κB-luciferase reporter. As to the kind of experiment: NF-κB-luciferase reporter assay. It counts as cell-based, rat. The procedure:
(§1) Cells were deprived of PDGF-AA for 5 h before re-exposure to PDGF-AA (10 ng/ml) for 1 h for Western blot or 6 h for luciferase assays of pathway activation. Transient transfection was performed using Fugene6 (Roche, Basel, Switzerland ) transfection solution according to the manufacturer's protocol. For the luciferase assay, cells seeded in 12-well plates were transfected with a reporter plasmid SRE-Luc(firefly) or NF-κB-Luc(firefly) (BD-Clontech, Palo Alto, Calif., United States) and an internal control plasmid pRLSV40-LUC. Analyses of luciferase activity were performed according to the protocol of the Dual Luciferase Assay System (Promega, Madison, Wis., United States), which uses an internal control of Renilla luciferase for quantification, and relative light units were measured using a luminometer.

The next test concerns Akt. It counts as cell-based, rat. An outline of the steps: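 Cells deprived of PDGF-AA for 5 h, then re-exposed to PDGF-AA (10 ng/ml) for 1 h. Lysates in RIPA buffer resolved by SDS-PAGE and immunoblotted with phospho-specific and total Akt or Erk antibodies, detected by HRP chemiluminescence.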
Another test concerns Erk1/2. Type of test: cell-based, rat.
The test system of a further test is EGFR. It counts as cell-based, rat. An outline of the steps: (§2)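 Western blot of cell lysates or sonicated tissue in RAPI buffer, SDS-PAGE to PVDF, primary antibodies (phospho-Erk, phospho-Akt, receptor, phospho-tyrosine), HRP secondary and luminol detection. Signaling analysed in presence of the cognate ligand: EGF for EGFR, NT-3 for TrkC, HGF for c-Met.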
For a further test, the system named is c-Met. It counts as cell-based, rat. In a few lines:
as §2

Another test concerns SRE-luciferase reporter. As to the kind of experiment: SRE-luciferase reporter assay. Type of test: cell-based, rat. The procedure:
as §1
(In general: A reporter such as luciferase makes a cellular process visible.)

The subject of the next test is O-2A/OPCs. As to the kind of experiment: In vitro BrdU incorporation assay. It counts as cell-based, rat. An outline of the steps: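 Surface antigens stained on live or 2% paraformaldehyde-fixed cells; intracellular ones after ice-cold methanol (4 min) or 0.5% Triton (15 min). Fluorescent secondary antibodies applied for 20 min.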
A further test concerns the target T1, Fyn (Rattus norvegicus, UniProt Q62844).
T1 construct: 250 μg of total cell lysates were immunoprecipitated with anti-Fyn antibody; endogenous in cells; host or cells: primary rat O-2A/OPCs
It counts as cell-based. An outline of the steps: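 Rat O-2A/OPC lysates (250 μg total protein) immunoprecipitated with anti-Fyn antibody. Washed Fyn immune complexes assayed for tyrosine kinase activity with a universal tyrosine kinase kit.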

In test [2] the test system is PDGFRα. As to the kind of experiment: PDGFRα phosphorylation (Western blot, anti-PDGFRα(pY742)). It counts as cell-based, rat. From the text: The cells were then collected and lysed for Western blotting. […] Cells were lysed for Western blot analysis using anti-PDGFRα(pY742) antibody. The membranes were de-probed and then re-probed with antibody against total PDGFRα and anti-β-tubulin antibody. […]
Anti-phosphorylated Erk monoclonal, anti-Erk monoclonal, anti-TrkC polyclonal anti-Fyn polyclonal, anti-EGFR polyclonal, anti-c-Met polyclonal, anti-phospho-tyrosine monoclonal, and anti-PDGFRα polyclonal antibodies were obtained from Santa Cruz Biotechnology (Santa Cruz, Calif., United States). Anti-c-Cbl monoclonal antibody was obtained from BD PharMingen (San Diego, Calif., United States). Anti-phosphorylated Akt monoclonal and anti-Akt polyclonal antibodies were obtained from Cell Signaling Technology (Beverly, Mass., United States). Anti-phosphorylated PDGPRα polyclonal antibody was obtained from Biosource (Carlsbad, Calif., United States). The cell culture samples were collected and lysed in RAPI buffer, whereas dissected tissue samples were sonicated in RAPI buffer. Samples were resolved on SDS-PAGE gels and transferred to PVDF membranes (PerkinElmer Life Science. Wellesley, Mass., United States), After being blocked in 5% skim milk in PBS containing 0.1% Tween 20, membranes were incubated with a primary antibody, followed by incubation with an HRP-conjugated secondary antibody (Santa Cruz Biotechnology). Membranes were visualized using Western Blotting Luminol Reagent (Santa Cruz Biotechnology). All analyses of signaling pathway components were conducted in the presence of ligand for the receptor pathway under analysis (either PDGF-AA for PDGFRα, NT-3 or TrkC, HGF for c-Met, or EGF for EGFR).
Background: Immunoblotting shows a protein as a band on a membrane.

In test [3] the test system is PDGFRα. Type of test: cell-based, rat.
The mark [4] stands for this setting: 1 mM NAC in the absence of toxicants.
Where [5] appears, read: NAC 1 mM, PP1 100 nM or ICI 182,780 200 nM with TMX.
The mark [6] stands for this setting: added 1 h before Pb or paraquat.
Where [7] appears, read: 30 nM MeHg, 1 μM Pb, 5 μM paraquat.

T1 sequence (Q62844 whole entry): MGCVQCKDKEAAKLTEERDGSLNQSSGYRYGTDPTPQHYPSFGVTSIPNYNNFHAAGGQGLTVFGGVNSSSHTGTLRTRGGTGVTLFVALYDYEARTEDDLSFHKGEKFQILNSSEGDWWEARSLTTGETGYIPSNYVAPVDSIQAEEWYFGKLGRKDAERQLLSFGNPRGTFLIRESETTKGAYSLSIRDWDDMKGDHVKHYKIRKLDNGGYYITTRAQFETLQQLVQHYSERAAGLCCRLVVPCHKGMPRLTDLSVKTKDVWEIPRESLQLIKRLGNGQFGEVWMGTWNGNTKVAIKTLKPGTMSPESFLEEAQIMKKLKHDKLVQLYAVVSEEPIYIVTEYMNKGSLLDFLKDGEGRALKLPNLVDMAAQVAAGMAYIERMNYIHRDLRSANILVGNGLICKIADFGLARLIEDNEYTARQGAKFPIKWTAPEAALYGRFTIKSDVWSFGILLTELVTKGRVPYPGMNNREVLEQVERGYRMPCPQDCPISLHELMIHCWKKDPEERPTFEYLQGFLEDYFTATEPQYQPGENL

Consider `CC(=O)N[C@@H](CS)C(=O)O` [NAC, N-acetyl-L-cysteine], for which, in the test with c-Cbl (setting [4]), the “effect on levels of c-Cbl phosphorylation without toxicant” value is “did not have any marked effect”. Further, the “effect on TMX-induced activation of c-Cbl” value in the test on c-Cbl (setting [5]) was “blocked”. The “effect on MeHg-induced c-Cbl phosphorylation” value in the test on c-Cbl (added 1 h before MeHg) was “blocked”. Further, in the test on c-Cbl (setting [6]), the “effect on Pb- and paraquat-induced c-Cbl phosphorylation” value is “blocked”. Further, in the test on c-Cbl (co-exposure with Aβ), the “effect on Aβ-induced increase in phosphorylated c-Cbl” value was “blocked”. The “effect on MeHg suppression of Nf-κB reporter activity” value in [1] (1 mM NAC with MeHg) was “rescued normal level”. In addition, in the test with Akt (1 mM NAC with EtOH), the “effect on EtOH suppression of Akt phosphorylation” value is “rescued”. For the same compound, the “effect on MeHg suppression of Akt phosphorylation” value in the test with Akt (1 mM NAC with MeHg) is on record as “rescued”. Further, in the test on Erk1/2 (1 mM NAC with EtOH), the “effect on EtOH suppression of Erk1/2 phosphorylation” value was “rescued”. In addition, in the test with Erk1/2 (co-exposure with Aβ(1-42)), the “effect on Aβ(1-42) suppression of PDGF-mediated Erk1/2 phosphorylation” value is on record as “blocked”. For the same compound, the “effect on MeHg-associated suppression of Erk1/2 phosphorylation” value in the test on Erk1/2 (co-treatment with MeHg) was “rescued”. In addition, in the test on Erk1/2 (co-treatment with Pb or paraquat), the “effect on Pb and paraquat effects on Erk1/2 phosphorylation” value is reported as “protected”. Also, the “effect on EtOH-induced reduction of EGFR levels” value in the test with EGFR (NAC added 1 hr before EtOH) is “substantial rescue”. Besides, the “effect on toxicant-associated reductions in EGFR levels” value in the test with EGFR (NAC with MeHg, Pb, or paraquat) was “protected”. The “effect on EtOH-induced reduction of c-Met levels” value in the test on c-Met (NAC added 1 hr before EtOH) is reported as “substantial rescue”. Besides, the “effect on toxicant-associated reductions in c-Met levels” value with c-Met (NAC with MeHg, Pb, or paraquat) is “protected”. Besides, in the test with SRE-luciferase reporter (1 mM NAC with MeHg), the “effect on MeHg suppression of SRE reporter activity” value is listed as “rescued normal level”. Further, the “effect on TMX effect on cell proliferation” value in the test on O-2A/OPCs (with TMX, 2 days) is reported as “blocked”. Also, on Fyn (setting [4]), the “effect on basal Fyn activity” value is listed as “only a slight, insignificant effect”. Also, the “effect on TMX-induced activation of Fyn” value on Fyn (setting [5]) was “blocked”. Further, the “effect on MeHg-induced Fyn activation” value at Fyn (added 1 h before MeHg) was “blocked”. The “effect on Pb- and paraquat-induced Fyn activation” value on Fyn (setting [6]) is on record as “blocked”. In addition, in the test with PDGFRα [2] (co-exposure with MeHg), the “effect on MeHg-induced suppression of PDGFRα phosphorylation” value is reported as “rescued”. The “effect on TMX-induced reductions in levels of PDGFRα” value in the test with PDGFRα [3] (setting [5]) was “blocked”. Also, the “effect on EtOH-induced reduction of PDGFRα levels” value in the test with PDGFRα [3] (NAC added 1 hr before EtOH) is “substantial rescue”. Also, in the test with PDGFRα [3] (co-exposure with Aβ), the “effect on Aβ-induced reduction in PDGFRα levels” value is listed as “blocked”. Further, in the test with PDGFRα [3] (together with MeHg), the “effect on MeHg-induced reductions in levels of PDGFRα” value was “prevented”. For the same compound, the “effect on Pb- and paraquat-induced reductions in levels of PDGFRα” value in the test on PDGFRα [3] (together with Pb (1 μM) or paraquat (5 μM)) is “protected”.

With `[CH3][Hg][Cl]` [MeHg, methylmercury], in the test with c-Cbl (setting [7]), the “c-Cbl phosphorylation after toxicant exposure” value is reported as “stimulated”. In test [1] (30 nM MeHg, 24 h), the “PDGF-induced NF-κB-luciferase reporter expression” value is “decreased”. Further, the “PDGF-induced Akt phosphorylation” value in the test with Akt (30 nM MeHg, 24 h) is given as “decreased”. In addition, in the test with Erk1/2 (30 nM MeHg), the “NT-3-induced Erk1/2 phosphorylation” value is given as “no reduction in Erk1/2 phosphorylation”. The “PDGF-induced Erk1/2 phosphorylation after toxicant exposure” value with Erk1/2 (30 nM MeHg 24 h, 1 μM Pb, 5 μM paraquat) is reported as “reduced ERK1/2 phosphorylation”. Besides, the “levels of EGFR after toxicant exposure” value in the test on EGFR (MeHg, Pb or paraquat) was “reductions”. In the test with c-Met (MeHg, Pb or paraquat), the “levels of c-Met after toxicant exposure” value was “reductions”. Also, the “NT-3-induced expression from SRE-luciferase reporter” value in the test on SRE-luciferase reporter (30 nM MeHg) was “no reduction in NT-3-induced expression”. Besides, the “PDGF-induced SRE-luciferase reporter expression” value in the test with SRE-luciferase reporter (30 nM MeHg, 24 h) is “reduced expression”. In the test on O-2A/OPCs (20 nM MeHg, stimulation with PDGF), the “drop in the percentage of O-2A/OPCs incorporating BrdU” value is recorded as “approximately 25%”. For the same compound, the “Fyn activation after toxicant exposure” value on Fyn (setting [7]) is “stimulated Fyn activation”. In the test with PDGFRα [2] (setting [7]), the “phosphorylation of PDGFRα after toxicant exposure” value is on record as “also reduced”. Besides, the “PDGFRα loss in the presence of cycloheximide” value in the test with PDGFRα [3] (MeHg 20 nM plus cycloheximide, versus cycloheximide alone) is “further accelerated receptor loss”. Further, the “total levels of PDGFRα after toxicant exposure” value with PDGFRα [3] (MeHg 30 nM, 1 μM Pb, 5 μM paraquat) is “reduction in levels of the PDGFRα itself”.
